Results on three molecules are retold here after ChEMBL document CHEMBL1158941, “Diterpenes from the Pohnpeian marine sponge Chelonaplysilla sp” (J Nat Prod, 1991).

The subject of assay [1] is Bacillus subtilis. Kind of assay: Antimicrobial activity against Bacillus subtilis at 5 ug/disk. The class given is functional, organism-based.
In assay [2] the test system is Bacillus subtilis. The assay can be described thus: Antimicrobial activity against Bacillus subtilis at 50 ug/disk. The class given is functional, organism-based.

Activity calls are given as the source filed them. The rule behind the calls is not given here.

As for `C=C1CCCC(C)(C)[C@@H]2CC[C@@](C)([C@@H]3[C@@H]4OC(=O)C[C@H]3[C@H](OC(C)=O)O4)[C@H]12`, the outcome in assay [1] was Active.

As to `C=C([C@@H]1[C@@H]2OC(=O)C[C@H]1[C@H](OC(C)=O)O2)[C@H]1CC[C@H]2C(C)(C)CCCC(=C)[C@]12C`, the outcome in assay [1] was Active.

Turning to `C=C1CCCC(C)(C)[C@@H]2CC[C@@](C)([C@@H]3[C@H]4CC(=O)O[C@H]4O[C@H]3O)[C@H]12`, the result in assay [2] was Active.
